{"source": "patent US20240246967A1", "about": "“AXL COMPOUNDS” (ARCUS BIOSCIENCES, INC., priority 2021, published 2024)", "key": {"[1]": {"biological_target": "T1, Axl (Homo sapiens, UniProt P30530)", "T1 sequence (P30530 26-894)": "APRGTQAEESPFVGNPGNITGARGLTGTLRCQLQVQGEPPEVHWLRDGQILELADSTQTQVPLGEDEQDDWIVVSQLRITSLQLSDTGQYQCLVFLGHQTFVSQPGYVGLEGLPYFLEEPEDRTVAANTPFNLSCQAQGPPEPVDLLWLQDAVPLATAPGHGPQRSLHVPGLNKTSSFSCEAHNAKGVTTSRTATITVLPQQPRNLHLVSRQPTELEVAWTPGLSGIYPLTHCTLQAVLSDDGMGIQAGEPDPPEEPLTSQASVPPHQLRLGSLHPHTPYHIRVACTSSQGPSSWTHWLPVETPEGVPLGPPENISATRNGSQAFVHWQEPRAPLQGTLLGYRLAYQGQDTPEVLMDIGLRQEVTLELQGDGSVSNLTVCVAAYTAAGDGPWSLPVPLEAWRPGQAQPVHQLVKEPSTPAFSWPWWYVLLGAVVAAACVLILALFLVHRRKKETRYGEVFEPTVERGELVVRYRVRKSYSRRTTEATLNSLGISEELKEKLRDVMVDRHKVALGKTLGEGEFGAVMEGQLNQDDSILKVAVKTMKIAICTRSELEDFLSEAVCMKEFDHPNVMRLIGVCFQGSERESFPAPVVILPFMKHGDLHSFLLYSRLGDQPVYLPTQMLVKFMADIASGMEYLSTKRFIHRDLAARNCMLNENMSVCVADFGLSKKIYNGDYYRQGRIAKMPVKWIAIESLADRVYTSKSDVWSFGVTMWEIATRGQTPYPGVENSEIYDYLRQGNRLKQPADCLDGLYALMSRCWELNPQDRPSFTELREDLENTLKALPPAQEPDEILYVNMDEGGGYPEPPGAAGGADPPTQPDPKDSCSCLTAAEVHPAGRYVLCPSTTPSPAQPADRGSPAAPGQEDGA", "assay": "Axl NanoBRET intracellular kinase assay (intracellular binding, Cell Binding)", "parameters": "host or cells: HEK-293", "conditions": "HEK-293 cells transfected with Axl-NanoLuc fusion vector; 0.35 μM K-5 NanoBRET tracer", "experimental": "Axl NanoBRET™ intracellular kinase assay (Promega, N2540) was performed according to manufacturer's recommendation. In brief, HEK-293 cells are transiently transfected with Axl-NanoLuc fusion vector (Promega, NV1071), utilizing Fugene HD transfection reagent (Promega, E2311) a day before experiment following manufacturer's recommendation.\nThe day of the assay, the cells were collected and resuspended in Opti-MEM media (ThermoFisher, 31985070) at 2e5 cells/mL concentration. Testing compounds were serial diluted and dispensed into a white 384 well polystyrene plate at 200 nL in 100% DMSO. 40 μL of resuspended cells is then added per well for a final condition of 8K cells/well with 0.5% DMSO. After one-hour compound pre-incubation at 37° C. and 5% CO2, cells were further incubated with 0.35 μM K-5 NanoBRET tracer for two-hours at 37° C. and 5% CO2. […] of 3× substrate plus Inhibitor solution was prepared according to kits manual and added to the cells followed by a 30 second pulse centrifugation spin. The plate was then immediately read utilizing an Envision (Perkin Elmer) plate reader. The BRET signal is measured by taking the ratio of the emissions reading at 610 nm and 450 nm. Compound binding is based on the decrease BRET signal caused by the displacement of the K-5 tracer. […] IC50 value of compounds was determined by 4-parameter non-linear regression fitting of percent activity in GraphPad Prism software."}, "[2]": {"biological_target": "T1, Axl", "assay": "HTRF KinEASE-TK biochemical potency assay, AXL", "parameters": "purchased Invitrogen", "conditions": "5 nM AXL, 700 μM ATP, 800 nM TK Substrate-biotin", "experimental": "Purified recombinant human AXL, TYRO3 and MER proteins were purchased from Invitrogen™. 10 nM AXL, 2 nM TYRO3 or MER were incubated with varying concentrations of compounds in 50 mM HEPES, pH 7.4, 10 mM MgCl2, 0.01% BSA, 1 mM DTT and 2% DMSO in a total volume of 20 μl in a 384-well microplate (Corning™ #3640) at RT for 1 h. The AXL, TYRO3 and MER enzymatic reaction was initiated by transferring 10 μl of enzyme and compound mixture into 10 μl of 1.6 μM TK Substrate-biotin (HTRF® KinEASE-TK kit, Cisbio) and 1400 μM ATP pre-incubated in 50 mM HEPES, pH 7.4, 10 mM MgCl2, 0.01% BSA, 1 mM DTT in a 384-well microplate (Corning™ #3640) at RT, giving the final reaction conditions: 5 nM AXL, 1 nM TYRO3 or MER, 800 nM TK Substrate-biotin and 700 μM ATP in 50 mM HEPES, pH 7.4, 10 mM MgCl2, 0.01% BSA, 1 mM DTT and 1% DMSO with varying concentrations of compounds. Following 2 h incubation at RT, the AXL, TYRO3 and MER enzymatic reaction was stopped by transfer of 10 μl of reaction into 10 μl of detection mix (400 nM Streptavidin-XL665, 200-fold dilution TK Antibody-Cryptate and detection buffer, HTRF® KinEASE-TK kit, Cisbio) in a white 384-well microplate (Perkin Elmer, OptiPlate 384). After 1 h incubation at RT, the plate was put into a plate reader (Evision) to read at 665/620 nm (acceptor/donor) for HTRF. The value of the DMSO blank (MIN inhibition=100% activity) was used as a negative control. The positive control was established by adding 5 μl of enzyme and DMSO mixture into 10 μl of detection mix followed by addition of 5 μl of TK Substrate-biotin and ATP mixture (MAX inhibition=0% activity). To calculate the percent activity, Equation 1 was used. Ratio 665/620 is the value at a given compound concentration: […]"}}, "data": [{"smiles": "CC(O)(c1ccc(-c2n[nH]c3ncc(-c4ccc5c(c4)CCN(C4CCCC4)CC5)cc23)cc1)C(F)(F)F", "note": "(stereo not shown) [Example 13, 2-{4-[5-(3-Cyclopentyl-2,3,4,5-tetrahydro-1H-3-benzazepin-7-yl)-1H-pyrazolo[3,4-b]pyridin-3-yl]phenyl}-1,1,1-trifluoropropan-2-ol]", "values": [{"measurement": "IC50", "setting": "[1]", "result": "100 to 1000", "unit": "nM"}]}, {"smiles": "CC(C)(O)c1ccc(-c2n[nH]c3ncc(-c4ccc5c(c4)CCN(C4CCCC4)CC5)cc23)cc1OC(F)(F)F", "note": "[Example 14, 2-{4-[5-(3-Cyclopentyl-2,3,4,5-tetrahydro-1H-3-benzazepin-7-yl)-1H-pyrazolo[3,4-b]pyridin-3-yl]-2-(trifluoromethoxy)phenyl}propan-2-ol]", "values": [{"measurement": "IC50", "setting": "[1]", "result": "> 1000", "unit": "nM"}]}, {"smiles": "CC(C)(O)c1ccc(-c2n[nH]c3ncc(-c4ccc5c(c4)CCN(C4CCCC4)CC5)c(F)c23)cc1Cl", "note": "[Example 15, 2-{2-Chloro-4-[5-(3-cyclopentyl-2,3,4,5-tetrahydro-1H-3-benzazepin-7-yl)-4-fluoro-1H-pyrazolo[3,4-b]pyridin-3-yl]phenyl}propan-2-ol]", "values": [{"measurement": "IC50", "setting": "[1]", "result": "> 1000", "unit": "nM"}]}, {"smiles": "CC(C)(O)c1ccc(-c2n[nH]c3ncc(-c4ccc5c(c4)CCN(C4CCCC4)CC5)cc23)cc1", "note": "[Example 18, 2-{4-[5-(3-Cyclopentyl-2,3,4,5-tetrahydro-1H-3-benzazepin-7-yl)-1H-pyrazolo[3,4-b]pyridin-3-yl]phenyl}propan-2-ol]", "values": [{"measurement": "IC50", "setting": "[1]", "result": "100 to 1000", "unit": "nM"}]}, {"smiles": "CS(=O)(=O)c1ccc(-c2n[nH]c3nc(N)c(-c4ccc5c(c4)CCN(C4CCCC4)CC5)cc23)cc1", "note": "[Example 19, 5-(3-Cyclopentyl-2,3,4,5-tetrahydro-1H-3-benzazepin-7-yl)-3-(4-methanesulfonylphenyl)-1H-pyrazolo[3,4-b]pyridin-6-amine]", "values": [{"measurement": "IC50", "setting": "[2]", "result": "100 to 1000", "unit": "nM"}, {"measurement": "IC50", "setting": "[1]", "result": "> 1000", "unit": "nM"}]}, {"smiles": "CC(C)(O)c1ccc(-c2n[nH]c3ncc(-c4ccc5c(c4)CCN(C4CCCC4)C5)cc23)cc1Cl", "note": "[Example 28, 2-(2-Chloro-4-(5-(2-cyclopentyl-1,2,3,4-tetrahydroisoquinolin-6-yl)-1H-pyrazolo[3,4-b]pyridin-3-yl)phenyl)propan-2-ol]", "values": [{"measurement": "IC50", "setting": "[1]", "result": "> 1000", "unit": "nM"}]}, {"smiles": "CC(C)(O)c1ccc(-c2n[nH]c3ncc(-c4ccc5c(c4)CN(C4CCCC4)CC5)cc23)cc1Cl", "note": "[Example 29, 2-(2-Chloro-4-(5-(2-cyclopentyl-1,2,3,4-tetrahydroisoquinolin-7-yl)-1H-pyrazolo[3,4-b]pyridin-3-yl)phenyl)propan-2-ol]", "values": [{"measurement": "IC50", "setting": "[1]", "result": "> 1000", "unit": "nM"}]}, {"smiles": "CC(C)(C#N)c1ccc(-c2n[nH]c3ncc(-c4ccc5c(c4)CCN(C4CCCC4)CC5)cc23)cc1", "note": "[Example 33, 2-(4-(5-(3-Cyclopentyl-2,3,4,5-tetrahydro-1H-benzo[d]azepin-7-yl)-1H-pyrazolo[3,4-b]pyridin-3-yl)phenyl)-2-methylpropanenitrile]", "values": [{"measurement": "IC50", "setting": "[2]", "result": "100 to 1000", "unit": "nM"}, {"measurement": "IC50", "setting": "[1]", "result": "> 1000", "unit": "nM"}]}, {"smiles": "CC(C)S(=O)(=O)c1ccc(-c2n[nH]c3ncc(-c4ccc5c(c4)CCC(C)(N4CCC[C@H]4C)CC5)cc23)cc1", "note": "(stereo partly drawn) [Example 43, 3-(4-(Isopropylsulfonyl)phenyl)-5-(7-methyl-7-((R)-2-methylpyrrolidin-1-yl)-6,7,8,9-tetrahydro-5H-benzo[7]annulen-2-yl)-1H-pyrazolo[3,4-b]pyridine]", "values": [{"measurement": "IC50", "setting": "[2]", "result": "< 100", "unit": "nM"}, {"measurement": "IC50", "setting": "[1]", "result": "< 100", "unit": "nM"}]}, {"smiles": "CCS(=O)(=O)c1ccc(-c2n[nH]c3ncc(-c4ccc5c(c4)CCC(C)(N4CCC[C@H]4C)CC5)cc23)cc1", "note": "(stereo partly drawn) [Example 44, 3-(4-(Ethylsulfonyl)phenyl)-5-(7-methyl-7-((R)-2-methylpyrrolidin-1-yl)-6,7,8,9-tetrahydro-5H-benzo[7]annulen-2-yl)-1H-pyrazolo[3,4-b]pyridine]", "values": [{"measurement": "IC50", "setting": "[2]", "result": "< 100", "unit": "nM"}, {"measurement": "IC50", "setting": "[1]", "result": "< 100", "unit": "nM"}]}, {"smiles": "CC(C)(O)c1ccc(-c2n[nH]c3ncc(-c4ccc5c(c4)CC[C@@H](N4CCCC4)CC5)cc23)c(Cl)c1", "note": "[Example 51, 2-(3-Chloro-4-{5-[(7S)-7-(pyrrolidin-1-yl)-6,7,8,9-tetrahydro-5H-benzo[7]annulen-2-yl]-1H-pyrazolo[3,4-b]pyridin-3-yl}phenyl)propan-2-ol]", "values": [{"measurement": "IC50", "setting": "[2]", "result": "100 to 1000", "unit": "nM"}, {"measurement": "IC50", "setting": "[1]", "result": "100 to 1000", "unit": "nM"}]}, {"smiles": "CNC(=O)c1ccc(-c2n[nH]c3ncc(-c4ccc5c(c4)CCC(C)(N4CCC[C@H]4C)CC5)cc23)cc1", "note": "(stereo partly drawn) [Example 71, N-Methyl-4-(5-{7-methyl-7-[(2R)-2-methylpyrrolidin-1-yl]-6,7,8,9-tetrahydro-5H-benzo[7]annulen-2-yl}-1H-pyrazolo[3,4-b]pyridin-3-yl)benzamide]", "values": [{"measurement": "IC50", "setting": "[1]", "result": "< 100", "unit": "nM"}]}, {"smiles": "Cc1cc(C(N)=O)ccc1-c1n[nH]c2ncc(-c3ccc4c(c3)CC[C@@H](N3CCCC3)CC4)cc12", "note": "[Example 86, (S)-3-Methyl-4-(5-(7-(pyrrolidin-1-yl)-6,7,8,9-tetrahydro-5H-benzo[7]annulen-2-yl)-1H-pyrazolo[3,4-b]pyridin-3-yl)benzamide]", "values": [{"measurement": "IC50", "setting": "[2]", "result": "< 100", "unit": "nM"}, {"measurement": "IC50", "setting": "[1]", "result": "100 to 1000", "unit": "nM"}]}, {"smiles": "CC(C)(O)c1ccc(-c2c[nH]c3ncc(-c4ccc5c(c4)CCC(N4CCCC4)CC5)cc23)cc1Cl", "note": "(stereo not shown) [Example 106, 2-(2-Chloro-4-{5-[7-(pyrrolidin-1-yl)-6,7,8,9-tetrahydro-5H-benzo[7]annulen-2-yl]-1H-pyrrolo[2,3-b]pyridin-3-yl}phenyl)propan-2-ol]", "values": [{"measurement": "IC50", "setting": "[2]", "result": "< 100", "unit": "nM"}, {"measurement": "IC50", "setting": "[1]", "result": "100 to 1000", "unit": "nM"}]}, {"smiles": "C[C@@H]1CCCN1C1(C)CCc2ccc(-c3cnc4[nH]cc(C5CCN(S(C)(=O)=O)CC5)c4c3)cc2CC1", "note": "(stereo partly drawn) [Example 116, 1-Methanesulfonyl-4-(5-{7-methyl-7-[(2R)-2-methylpyrrolidin-1-yl]-6,7,8,9-tetrahydro-5H-benzo[7]annulen-2-yl}-1H-pyrrolo[2,3-b]pyridin-3-yl)piperidine]", "values": [{"measurement": "IC50", "setting": "[1]", "result": "< 100", "unit": "nM"}]}]}
